Results as given in ChEMBL document CHEMBL1799986, “In vitro inhibition of α-carbonic anhydrase isozymes by some phenolic compounds” (Bioorg Med Chem Lett, 2011).

Experiments:
[1] = molecular target: T1, Carbonic anhydrase (Dicentrarchus labrax, UniProt Q2PCB5); test: Inhibition of Dicentrarchus labrax CA using 4-nitrophenylacetate substrate by esterase assay
T1 sequence (Q2PCB5 whole entry): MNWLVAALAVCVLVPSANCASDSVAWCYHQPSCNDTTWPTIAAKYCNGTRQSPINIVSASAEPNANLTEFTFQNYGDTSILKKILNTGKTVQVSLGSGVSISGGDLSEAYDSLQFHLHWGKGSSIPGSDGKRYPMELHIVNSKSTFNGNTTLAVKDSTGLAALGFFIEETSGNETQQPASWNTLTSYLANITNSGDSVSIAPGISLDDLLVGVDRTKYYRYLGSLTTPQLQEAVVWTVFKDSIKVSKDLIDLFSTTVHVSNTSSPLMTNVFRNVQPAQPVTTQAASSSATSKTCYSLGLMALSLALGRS

[2] = molecular target: Carbonic anhydrase 6 (Homo sapiens, UniProt P23280); test: Inhibition of human CA6 using 4-nitrophenylacetate substrate by esterase assay
Sequence of Carbonic anhydrase 6 (P23280 whole entry): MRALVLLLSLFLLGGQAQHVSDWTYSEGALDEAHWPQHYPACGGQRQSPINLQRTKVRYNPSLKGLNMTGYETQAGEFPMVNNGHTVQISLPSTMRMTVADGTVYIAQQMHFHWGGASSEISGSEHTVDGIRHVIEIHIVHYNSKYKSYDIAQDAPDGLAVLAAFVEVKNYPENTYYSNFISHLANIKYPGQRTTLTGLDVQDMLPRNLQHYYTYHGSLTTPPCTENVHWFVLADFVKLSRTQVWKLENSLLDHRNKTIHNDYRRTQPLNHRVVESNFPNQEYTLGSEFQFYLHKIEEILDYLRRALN

[3] = molecular target: Carbonic anhydrase 1 (Homo sapiens, UniProt P00915); test: Inhibition of human CA1 using 4-nitrophenylacetate substrate by esterase assay
Sequence of Carbonic anhydrase 1 (P00915 whole entry): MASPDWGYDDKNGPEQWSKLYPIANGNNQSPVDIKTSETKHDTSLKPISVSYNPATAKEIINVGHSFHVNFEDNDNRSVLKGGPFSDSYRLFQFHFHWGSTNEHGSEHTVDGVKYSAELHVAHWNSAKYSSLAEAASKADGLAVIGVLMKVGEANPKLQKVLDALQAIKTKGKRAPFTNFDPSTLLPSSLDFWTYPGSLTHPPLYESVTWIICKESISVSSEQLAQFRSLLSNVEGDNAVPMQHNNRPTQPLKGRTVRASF

[4] = molecular target: Carbonic anhydrase 2 (Homo sapiens, UniProt P00918); test: Inhibition of human CA2 using 4-nitrophenylacetate substrate by esterase assay

SMILES | Ki [1] | Ki [2] | Ki [3] | Ki [4]
O=C(O)c1cc(O)cc(O)c1 [3,5-DIHYDROXYBENZOIC ACID] | 2.13 µM | – | – | –
O=C(O)c1ccc(O)c(O)c1 [PROTOCATECHUIC ACID] | 3.21 µM | 4.72 µM | – | –
Oc1ccccc1 [PHENOL] | 13.7 µM | – | – | –
O=C(O)c1ccccc1O [SALICYLIC ACID] | 324 µM | – | – | –
O=C(O)c1cc(O)c(O)c(O)c1 [GALLIC ACID] | 4.13 µM | – | – | –
Oc1ccccc1O [CATECHOL] | 14.8 µM | – | – | –
O=C(OC[C@H]1O[C@@H](OC(=O)c2cc(O)c(O)c(OC(=O)c3cc(O)c(O)c(O)c3)c2)[C@H](OC(=O)c2cc(O)c(O)c(OC(=O)c3cc(O)c(O)c(O)c3)c2)[C@@H](OC(=O)c2cc(O)c(O)c(OC(=O)c3cc(O)c(O)c(O)c3)c2)[C@@H]1OC(=O)c1cc(O)c(O)c(OC(=O)c2cc(O)c(O)c(O)c2)c1)c1cc(O)c(O)c(OC(=O)c2cc(O)c(O)c(O)c2)c1 [TANNIC ACID] | 9.41 µM | 17.8 µM | 75.9 µM | 32.8 µM

Second part, the molecule after the results:

Ki [1] | Ki [2] | Ki [3] | Ki [4] | SMILES
6.42 µM | – | – | – | Oc1cccc(O)c1 [RESORCINOL]
98.3 µM | 3.17 µM | – | – | O=C(O)c1cccc(O)c1 [3-HYDROXYBENZOIC ACID]
5.93 µM | – | – | – | Oc1ccc(O)cc1 [HYDROQUINONE]
4.39 µM | 0.52 µM | 7.41 µM | 0.54 µM | Oc1cccc(O)c1O [PYROGALLOL]
8.46 µM | – | – | – | O=C(O)c1ccc(O)cc1 [PARABEN]
